What was measured:
[1] = Plasma DOAC concentration in ADAGE patients (chromogenic anti-FXa assay for rivaroxaban and apixaban; anti-FIIa Hemoclot assay for dabigatran); assay type: in vivo, human; details: for DOAC concentration, range: ADAGE patients, reduced dose (regimens as E1)
Description: (§1) ADAGE is an academic, prospective, observational multicenter study (NCT 02464488; for details, see Foulon-Pinto et al.). We recruited hospitalized patients from the university hospital’s geriatric department (Assistance Publique-Hôpitaux de Paris, Paris, France). […] The DOAC dose regimen was at the discretion of the physician. Exclusion criteria included any acute, unstable comorbid condition or an estimated life expectancy of a few weeks. Sampling (see below) and last DOAC intake times were recorded on a standardized request form. Sampling time points were at the discretion of the physicians over a period of 20 days following inclusion. Time points were classified according to the time elapsed from the last oral intake (T, hours) for patients receiving rivaroxaban. T1 to T4 corresponded to peak time (Tmax), and T20 to T24 corresponded to trough (Tmin). […] Physicians prospectively collected demographic, clinical, and laboratory data (including creatinine clearance [CrCl] calculated with the Cockcroft–Gault formula). The study was approved by the institutionnel Ethics Committee (Comité consultatif de protection des personnes pour la recherche biomédicale–Île-de-France-6–number 15.074bis). All participants gave written informed consent to participate in the study. Only patients for whom remaining plasma aliquots were available were included in the present study.
(§2) Tubes were sent to each centre’s laboratory within 2 hours after sampling and immediately double-centrifuged for 15 minutes at 2000 × g at 15 to 22 °C to obtain platelet-poor plasma. Plasma samples (500 μL aliquots) were stored at −80 °C prior to shipment on dry ice for central analysis (Haematology Laboratory, Hôpital Lariboisière). Plasma samples were thawed for 3 to 5 minutes in a 37 °C water bath just before testing.
Dedicated calibrations and controls were used. The lower limit of quantification was 20 ng/mL for the 3 assays.

fibrin clot formation [2] = test: Thrombodynamics-4D fibrinography in plasma samples from ADAGE patients on DOACs; assay type: in vivo, human; details: for CS (clot size at 30 minutes), median (IQR) / CS (clot size at 30 minutes), range / D (clot density), median (IQR) / D (clot density), range / Fibrinography Tlag (lag time), median (IQR) / Fibrinography Tlag (lag time), range / Initial rate of clot growth (Vi), median (IQR) / Initial rate of clot growth (Vi), range / Time to Tsp (spontaneous clotting), median (IQR) / Time to Tsp (spontaneous clotting), range: ADAGE patients, reduced dose (regimens as E1)
Description: as §1, §2
(§3) The TD-4D assay was performed centrally using the Thrombodynamics analyzer system (Hemacore, Diapharma) with the TD-4D PLS dedicated kit (Hemacore, Diapharma). The system simultaneously measures spatiotemporal parameters of fibrin clot formation (fibrinography) and TG process (thrombography) in a thin layer of unstirred plasma. Briefly, 120 μL of platelet-poor plasma is added to a microcuvette containing corn trypsin inhibitor to prevent contribution of contact phase activation, then 5 μL of phospholipid solution (manufacturer’s reagent) is added. After incubation for 15 minutes at 37 °C in the Thrombodynamics device, the mixture is transferred to a second microcuvette containing calcium ions, and then immediately transferred to the measurement cuvette. Finally, the activator insert, whose surface is coated with immobilized tissue factor (100 pmol/m^2), is then transferred to the cuvette. The process of fibrin clot formation is recorded in a time-lapse video-microscopy mode using a dark-field light scattering method. Simultaneously, the system monitors TG by fluorimetry, based on the ability of thrombin to cleave a fluorogenic substrate, 7-amino-4-methylcoumarin (AMC) bound to a short amino acid sequence (Arg-Gly-Gly). The rate of AMC formation is proportional to local thrombin concentration. The microcuvette is maintained at 37 °C and is illuminated with red (625 nm) or ultra-violet (365 nm) light emitting diodes. Clot growth is detected with red light scattering, while AMC fluorescence is detected with UV. Scattered red light and fluorescence passing through the macro lens are recorded by a charge-coupled device system. Images under red and blue light are acquired once per minute. The whole analysis lasts 1 hour. The Thrombodynamics software (Hemacore, Diapharma) calculates parameters of spatiotemporal dynamics of fibrin clot formation and TG [40, 46]. […]

thrombin generation [3] = test: Thrombodynamics-4D thrombography in plasma samples from ADAGE patients on DOACs; assay type: in vivo, human; details: for ETP (endogenous thrombin potential, ETP_ATG), median (IQR) / ETP (endogenous thrombin potential, ETP_ATG), range / Thrombin peak height (Cmax_ATG), median (IQR) / Thrombin peak height (Cmax_ATG), range / Thrombography Tlag (Lag_ATG), median (IQR) / Thrombography Tlag (Lag_ATG), range / Time to peak (Tmax_ATG), median (IQR) / Time to peak (Tmax_ATG), range: ADAGE patients, reduced dose (regimens as E1)
Description: as §1, §2, §3

fibrin clot formation [4] = test: Thrombodynamics-4D fibrinography in pooled normal plasma (Cryocheck) spiked with DOACs; assay type: biochemical, human; details: 0 to 1000 nM, mainly at low DOAC concentrations
Procedure: (§4) Frozen pooled normal plasma samples (Cryocheck-Cryopep) were spiked with increasing concentrations of DOACs (0-450 ng/mL), as previously described. […] were kindly provided by Bristol Myers Squibb/Pfizer, Bayer Healthcare, and Boehringer Ingelheim, respectively.
The TD-4D assay was performed centrally using the Thrombodynamics analyzer system (Hemacore, Diapharma) with the TD-4D PLS dedicated kit (Hemacore, Diapharma). The system simultaneously measures spatiotemporal parameters of fibrin clot formation (fibrinography) and TG process (thrombography) in a thin layer of unstirred plasma. Briefly, 120 μL of platelet-poor plasma is added to a microcuvette containing corn trypsin inhibitor to prevent contribution of contact phase activation, then 5 μL of phospholipid solution (manufacturer’s reagent) is added. […] The process of fibrin clot formation is recorded in a time-lapse video-microscopy mode using a dark-field light scattering method. […] Clot growth is detected with red light scattering, while AMC fluorescence is detected with UV. Scattered red light and fluorescence passing through the macro lens are recorded by a charge-coupled device system. […]
(§5) The following fibrinography parameters were recorded (see Supplementary Table 1): (i) lag time (Tlag, minutes); (ii) initial rate of clot growth (Vi, μm/min); (iii) rate of clot growth (V, μm/min); (iv) clot size (CS, μm) measured at 30 minutes; (v) clot density (D, arbitrary units); (vi) time to spontaneous clotting (Tsp, minutes). The following thrombography parameters (at the near-activator area) were recorded (see Supplementary Table 1): (i) Tlag (minutes); (ii) time to thrombin peak (minutes); (iii) maximal thrombin concentration (ie, thrombin peak height, Cmax_ATG, AU/L); (iv) endogenous thrombin potential (ETP_ATG, AU⋅min/L); (v) stationary amplitude of moving peak of thrombin (Ast, AU/L); (vi) rate of thrombin peak propagation (μm/min; see Supplementary Videos 1–3).

thrombin generation [5] = test: Thrombodynamics-4D thrombography in pooled normal plasma (Cryocheck) spiked with DOACs; assay type: biochemical, human
Procedure: as §4
as §3, with “minute.” for “minute. The whole analysis lasts 1 hour. The Thrombodynamics software (Hemacore, Diapharma) calculates parameters of spatiotemporal dynamics of fibrin clot formation and TG [40, 46].”
as §5

[6] = all ADAGE patient samples, any time point and dose
[7] = all ADAGE patient samples, Spearman
[8] = univariate analysis, Tmax, line marked Halving
[9] = univariate analysis, Tmin, line marked Halving

For `COc1ccc(-n2nc(C(N)=O)c3c2C(=O)N(c2ccc(N4CCCCC4=O)cc2)CC3)cc1` [Apixaban], the “DOAC concentration, range” value ([1]; Tmax (peak)) was 69 to 442 ng/mL, the “DOAC concentration, range” value ([1]; Tmin (trough)) was 20 to 240 ng/mL and the “DOAC plasma concentration, lower end of range” value [1, 6] was under 20 ng/mL. The “DOAC plasma concentration, upper end of range” value [1, 6] was 547 ng/mL, the “CS (clot size at 30 minutes), median (IQR)” value (fibrin clot formation [2]; Tmax (peak)) was 1362 (1317-1698) μm and the “CS (clot size at 30 minutes), range” value (fibrin clot formation [2]; Tmax (peak)) was 1134-1857 μm. The “D (clot density), median (IQR)” value (fibrin clot formation [2]; Tmax (peak)) was 25,340 (22,600-27,790) a.u, the “D (clot density), range” value (fibrin clot formation [2]; Tmax (peak)) was 14,090-34,880 a.u and the “Fibrinography Tlag (lag time), median (IQR)” value (fibrin clot formation [2]; Tmax (peak)) was 1.3 (1.2-1.4) min. For the same compound, the “Fibrinography Tlag (lag time), range” value (fibrin clot formation [2]; Tmax (peak)) was 0.9 to 2.3 min, the “Initial rate of clot growth (Vi), median (IQR)” value (fibrin clot formation [2]; Tmax (peak)) was 64.9 (60.9-74.2) μm/min and the “Initial rate of clot growth (Vi), range” value (fibrin clot formation [2]; Tmax (peak)) was 56.1- 95.5 μm/min. For the same compound, the “Time to Tsp (spontaneous clotting), median (IQR)” value (fibrin clot formation [2]; Tmax (peak)) was 22.9 (12.1-31.1) min, the “Time to Tsp (spontaneous clotting), range” value (fibrin clot formation [2]; Tmax (peak)) was 6.8 to 48.2 min and the “CS (clot size at 30 minutes), median (IQR)” value (fibrin clot formation [2]; Tmin (trough)) was 1655 (1395-1780) μm. For the same compound, the “CS (clot size at 30 minutes), range” value (fibrin clot formation [2]; Tmin (trough)) was 1170-2147 μm, the “D (clot density), median (IQR)” value (fibrin clot formation [2]; Tmin (trough)) was 25,470 (21,190-29,910) a.u and the “D (clot density), range” value (fibrin clot formation [2]; Tmin (trough)) was 15,530-37,550 a.u. The “Fibrinography Tlag (lag time), median (IQR)” value (fibrin clot formation [2]; Tmin (trough)) was 1.1 (1.0-1.3) min, the “Fibrinography Tlag (lag time), range” value (fibrin clot formation [2]; Tmin (trough)) was 0.7 to 1.8 min and the “Initial rate of clot growth (Vi), median (IQR)” value (fibrin clot formation [2]; Tmin (trough)) was 68.3 (64.8-76.2) μm/min. The “Initial rate of clot growth (Vi), range” value (fibrin clot formation [2]; Tmin (trough)) was 54.6-88.8 μm/min, the “Time to Tsp (spontaneous clotting), median (IQR)” value (fibrin clot formation [2]; Tmin (trough)) was 23.0 (12.8-28.1) min and the “Time to Tsp (spontaneous clotting), range” value (fibrin clot formation [2]; Tmin (trough)) was 6.8 to 46.7 min. The “Change of CS (clot size) with increasing concentrations” value (fibrin clot formation [2]; all ADAGE patient samples) was “decreased”, the “Association of D (clot density) with DOAC concentration” value (fibrin clot formation [2]; [7]) was “not” and the “Relationship between time to spontaneous clot formation (Tsp) and DOAC levels” value (fibrin clot formation [2]; [7]) was “no relationship”. For the same compound, the “Effect of DOAC concentration at Tmax (βC.pic) on fibrinography initial velocity of clot formation” value (fibrin clot formation [2]; [8]) was “≈ 0.02018%”, the “Effect of DOAC concentration at Tmin (βC.res) on fibrinography initial velocity of clot formation” value (fibrin clot formation [2]; [9]) was “≈ 0.04558%” and the “ETP (endogenous thrombin potential, ETP_ATG), median (IQR)” value (thrombin generation [3]; Tmax (peak)) was 1698 (1280-1961) AU⋅min/L. The “ETP (endogenous thrombin potential, ETP_ATG), range” value (thrombin generation [3]; Tmax (peak)) was 971-3095 AU⋅min/L, the “Thrombin peak height (Cmax_ATG), median (IQR)” value (thrombin generation [3]; Tmax (peak)) was 309 (240-395) AU/L and the “Thrombin peak height (Cmax_ATG), range” value (thrombin generation [3]; Tmax (peak)) was 206-507 AU/L. The “Thrombography Tlag (Lag_ATG), median (IQR)” value (thrombin generation [3]; Tmax (peak)) was 0.3 (0.2-0.6) min, the “Thrombography Tlag (Lag_ATG), range” value (thrombin generation [3]; Tmax (peak)) was 0.1 to 1.3 min and the “Time to peak (Tmax_ATG), median (IQR)” value (thrombin generation [3]; Tmax (peak)) was 2.1 (2.1-2.6) min. For the same compound, the “Time to peak (Tmax_ATG), range” value (thrombin generation [3]; Tmax (peak)) was 1.2 to 4.6 min, the “ETP (endogenous thrombin potential, ETP_ATG), median (IQR)” value (thrombin generation [3]; Tmin (trough)) was 1711 (1436-1978) AU⋅min/L and the “ETP (endogenous thrombin potential, ETP_ATG), range” value (thrombin generation [3]; Tmin (trough)) was 924-2958 AU⋅min/L. The “Thrombin peak height (Cmax_ATG), median (IQR)” value (thrombin generation [3]; Tmin (trough)) was 325 (292-379) AU/L, the “Thrombin peak height (Cmax_ATG), range” value (thrombin generation [3]; Tmin (trough)) was 158-511 AU/L and the “Thrombography Tlag (Lag_ATG), median (IQR)” value (thrombin generation [3]; Tmin (trough)) was 0.2 (0.2-0.6) min. The “Thrombography Tlag (Lag_ATG), range” value (thrombin generation [3]; Tmin (trough)) was 0.1 to 1.0 min, the “Time to peak (Tmax_ATG), median (IQR)” value (thrombin generation [3]; Tmin (trough)) was 2.1 (2.1-2.1) min and the “Time to peak (Tmax_ATG), range” value (thrombin generation [3]; Tmin (trough)) was 1.6 to 3.6 min. For the same compound, the “Change of ETP_ATG with increasing DOAC plasma concentrations” value (thrombin generation [3]; all ADAGE patient samples) was “decreased”, the “Effect of DOAC concentration at Tmax (βC.pic) on thrombography peak height (PH)” value (thrombin generation [3]; [8]) was “≈ 0.07471%” and the “Effect of DOAC concentration at Tmin (βC.res) on thrombography peak height (PH)” value (thrombin generation [3]; [9]) was “≈ 0.1698%”. The “Samples in which spontaneous clotting occurred” value (fibrin clot formation [4]) was 14% and the “Change of Ast (stationary amplitude of thrombin moving peak) with increasing concentrations” value (thrombin generation [5]) was “decreased”.

— PMC12351382, “Fibrinography and thrombography (thrombodynamics-4D) in atrial fibrillation assessment of direct oral anticoagulants in geriatrics patients aged 80 years and older receiving direct oral anticoagulant therapy” (Research and Practice in Thrombosis and Haemostasis, 2025)
